Source: article PMC8399443, “Synthesis, Biological Evaluation, and In Silico Modeling of N-Substituted Quinoxaline-2-Carboxamides” (Pharmaceuticals, 2021)
pIC50: −log10 of the molar value. ≈ marks a conversion by molar mass, not a printed value. Where “and” joins values, the source holds several entries; their conditions need not be identical. Equal entries are not always repeated. Where two headings read alike, the source gives them in different places.

Assays:
[1] = system: Mtb H37Ra; test: In vitro antimycobacterial activity, Microplate Alamar Blue Assay (MABA); format: cell-based, Mycobacterium tuberculosis; settings: for MIC: Mycobacterium tuberculosis, H37RA, read-out: MIC Mtb H37Ra; for SI (selectivity index): IC50 HepG2 (µM)/MIC Mtb H37Ra (µM)
[2] = system: HepG2 cell line; test: In vitro cytotoxicity, CellTiter 96 (MTS); format: cell-based; settings: Homo sapiens, HepG2; cytotoxicity, 24 h incubation, CellTiter 96; read-out: HepG2 IC50
[3] = system: M. smegmatis; test: In vitro antimycobacterial activity, MABA; format: cell-based, Mycobacterium smegmatis; settings: Mycolicibacterium smegmatis, read-out: MIC M. smeg
[4] = system: M. aurum; test: In vitro antimycobacterial activity, MABA; format: cell-based, Mycobacterium aurum; settings: Mycolicibacterium aurum, read-out: MIC M. aurum

| SMILES | MIC [1] | pIC50 [2] | MIC ([3]; MABA) [µg/mL] | MIC ([4]; MABA) [µg/mL] | SI (selectivity index) [1] | MIC [3] | MIC Mtb H37Ra ([1]; MABA, pH of testing medium 6.6) | MIC [4] [µg/mL] |
| --- | --- | --- | --- | --- | --- | --- | --- | --- |
| O=C(O)c1nccnc1C(=O)Nc1cccc(C(F)(F)F)c1 [C00007 R=3-CF3, reference compound] | 250 µg/mL (≈ 803 µM) | – | – | – | – | – | – | – |
| COc1ccc(NC(=O)c2nccnc2C(=O)O)cc1 [C00007 R=4-OCH3, reference compound] | ≥ 500 µg/mL | – | – | – | – | – | – | – |
| O=C(O)c1nccnc1C(=O)Nc1ccccc1 [C00007 R=H, reference compound] | ≥ 500 µg/mL | – | – | – | – | – | – | – |
| O=C(Nc1ccccc1)c1cnc2ccccc2n1 [Compound 1] | ≥ 500 µg/mL | < 4.30 | ≥ 250 | ≥ 250 | – | – | – | – |
| O=C(Nc1cccc(O)c1)c1cnc2ccccc2n1 [Compound 2] | 15.6 µg/mL and 58.9 µM | < 3.60 | ≥ 125 | ≥ 125 | >4.20 | – | – | – |
| O=C(Nc1ccc(O)cc1)c1cnc2ccccc2n1 [Compound 3] | 62.5 µg/mL and 236 µM | < 3.60 | ≥ 500 | ≥ 500 | >1.01 | – | – | – |
| COc1cc(NC(=O)c2cnc3ccccc3n2)cc(OC)c1 [Compound 4] | 62.5 µg/mL and 202 µM | < 4.60 | ≥ 125 | ≥ 125 | >0.12 | – | – | – |
| COc1ccc(NC(=O)c2cnc3ccccc3n2)cc1 [Compound 5] | ≥ 125 µg/mL | < 4.30 | ≥ 125 | ≥ 125 | – | – | – | – |
| O=C(NC1CCCCC1)c1cnc2ccccc2n1 [Compound 6] | 31.2 µg/mL and 122 µM | < 3.00 | 31.2 | ≥ 500 | >8.17 | 122 µM | – | – |
| O=C(Nc1ccccc1F)c1cnc2ccccc2n1 [Compound 7] | ≥ 500 µg/mL | < 4.00 | 62.5 | ≥ 500 | – | 234 µM | – | – |
| O=C(Nc1cccc(F)c1)c1cnc2ccccc2n1 [Compound 8] | 250 µg/mL (≈ 935 µM) | < 4.00 | ≥ 500 | ≥ 500 | – | – | – | – |
| O=C(Nc1ccc(F)cc1)c1cnc2ccccc2n1 [Compound 9] | 15.6 µg/mL and 58.5 µM | < 4.00 | ≥ 500 | ≥ 500 | >1.71 | – | – | – |
| CN(C)c1ccc(NC(=O)c2cnc3ccccc3n2)cc1 [Compound 10] | ≥ 500 µg/mL | < 3.60 | ≥ 500 | ≥ 500 | – | – | – | – |
| O=C(Nc1ccc(F)cc1F)c1cnc2ccccc2n1 [Compound 11] | ≥ 500 µg/mL | < 3.60 | ≥ 500 | ≥ 500 | – | – | – | – |
| O=C(Nc1ccccc1Cl)c1cnc2ccccc2n1 [Compound 12] | ≥ 125 µg/mL | < 4.30 | ≥ 125 | ≥ 125 | – | – | – | – |
| O=C(Nc1cccc(Cl)c1)c1cnc2ccccc2n1 [Compound 13] | ≥ 500 µg/mL | < 4.60 | ≥ 500 | ≥ 500 | – | – | – | – |
| O=C(Nc1cccc(C(F)(F)F)c1)c1cnc2ccccc2n1 [Compound 14] | ≥ 500 µg/mL | < 4.60 | ≥ 125 | ≥ 125 | – | – | – | – |
| O=C(NCc1ccccc1)c1cnc2ccccc2n1 [Compound 15] | 15.6 µg/mL and 59.3 µM | < 3.00 | ≥ 125 | ≥ 125 | >17 | – | 15.625 (15) µg/mL | – |
| O=C(NCc1cccc(O)c1)c1cnc2ccccc2n1 [Compound 16] | 31.2 µg/mL and 112 µM | 3.22 | 62.5 | ≥ 500 | 5.40 | 237 µM | – | – |
| O=C(NCc1ccc(O)cc1)c1cnc2ccccc2n1 [Compound 17] | 62.5 µg/mL and 224 µM | < 3.60 | ≥ 500 | 500 (≈ 1790 µM) | >1.1 | – | – | – |
| COc1ccc(OC)c(CNC(=O)c2cnc3ccccc3n2)c1 [Compound 18] | 3.91 µg/mL and 12.1 µM | < 3.00 | – | – | – | ≥ 500 µg/mL | – | ≥ 500 |
